One substance from patent publication US4812443A, “Methods for enhancing differentiation and proliferation of hematopoietic progenitor cells” (Kuraray Co., Ltd., priority 1984, dated 1989) can be followed below.

Series [1] deals with reserpine-induced blepharoptosis. Kind of series: Reserpine antagonistic action in mice. The following applies: 150, 300 and 600 mg/kg; reserpine 4 mg/kg i.p.; one hour after administration; vs control. The format is in vivo, mouse (ddY-strain). An excerpt:
(§1) Since the dolichol is a water-insoluble oily liquid, it was used as a solution in sesame oil in the case of oral administration, and as a suspension in a nonionic surfactant (HCO-60, a trade name for a product of Nikko Chemical Co., Ltd.) in the case of intraperitoneal administration and in an in vitro test in the following experiment.
In the following experiment, ddY-strain male mice, Wistar-strain male rats (Shizuoka Laboratory Animal Center), Japanese white male rabbits (Carely) and Hartley-strain male guinea pigs (Clea Japan Inc.) were used. The animals were kept under conditions including a temperature of 23±1° C., a humidity of 55±10%, an illuminating time (7:00 am to 9.00 pm) and 15 ventilations per hour. The mice and rats were fed with solid feeds MF (a product of Oriental Yeast Co., Ltd.) and the guinea pigs and rabbits were fed with solid feeds GM-3 and RM-1 (Funabashi Farm Co.). They were allowed to take tap water freely. […]
ddY-strain male mice (27-30 g), 6 per group, were used. […] One hour after the administration of dolichol, the degree of blepharoptosis in the mice was observed and recorded in accordance with the Rubin's standards of evaluation (0: normal opening of the eyes, 1: 1/4 blepharoptosis, 2: 1/2 blepharoptosis, 3: 3/4 blepharoptosis, 4: complete blepharoptosis).

Another series has as its system blood coagulation system. The series is described as follows: Effect on the blood coagulation system in rats (Quick's one-step method). In kind it is in vivo, rat (Wistar-strain). The settings on record: 150, 300 and 600 mg/kg; two hours after administration; vs control.
Excerpt: as §1
(§2) In the following experiment, ddY-strain male mice, Wistar-strain male rats (Shizuoka Laboratory Animal Center), Japanese white male rabbits (Carely) and Hartley-strain male guinea pigs (Clea Japan Inc.) were used. The animals were kept under conditions including a temperature of 23±1° C., a humidity of 55±10%, an illuminating time (7:00 am to 9.00 pm) and 15 ventilations per hour. The mice and rats were fed with solid feeds MF (a product of Oriental Yeast Co., Ltd.) and the guinea pigs and rabbits were fed with solid feeds GM-3 and RM-1 (Funabashi Farm Co.). They were allowed to take tap water freely. The animals were preliminarily kept for more than one week, and those which were healthy in general conditions were used in the experiments.
Wistar-strain male rats (180-210 g), 6 per group, were used. Two hours after administration of dolichol to rats, the blood was taken from the abdominal main vein of the rats, and the prothrombin time was measured by the Quick's one-step method.

The next series deals with extracted ileum. Kind of series: Peripheral action, extracted ileum of guinea pigs. Also noted: species or system guinea pig (Hartley-strain). The settings on record: up to 10^-4 g/ml; 32° C.
Excerpt: as §1
In the following experiment, ddY-strain male mice, Wistar-strain male rats (Shizuoka Laboratory Animal Center), Japanese white male rabbits (Carely) and Hartley-strain male guinea pigs (Clea Japan Inc.) were used. The animals were kept under conditions including a temperature of 23±1° C., a humidity of 55±10%, an illuminating time (7:00 am to 9.00 pm) and 15 ventilations per hour. […]
Hartley-strain male guinea pigs (350 to 400 g), 3 per group, were used, and the extracted ileum samples were suspended in Tyrode solution at 32° C. through which air was introduced. The contraction of the ileum was recorded on an ink-writing oscillograph (EMP-3004, Nippon Photoelectric Co. through an isotonic transducer (TD-112S, Nippon Photoelectric Co.). The direct action of dolichol and the antagonistic action of dolichol against acetylcholine, histamine and nicotine in a concentration of 10^-6 g/ml, 10^-5 g/ml, and 10^-4 g/ml, respectively, were examined.

A further series relates to extracted trachea. Kind of series: Peripheral action, extracted trachea of guinea pigs. Also noted: species or system guinea pig (Hartley-strain). The settings on record: up to 10^-4 g/ml, 37° C.
Excerpt: as §1, §2
Hartley-strain male guinea pigs (350-400 g), 3 per group, were used. The extracted trachea was suspended in Locke-Ringer solution at 37° C. through which air was introduced. The contraction of the trachea was recorded in the same way as in the case of the extracted ileum. […]

The test system of a further series is acetic acid writhing. Kind of series: Analgesic action in mice (acetic acid writhing method). The settings on record: 150, 300 and 600 mg/kg; one hour before acetic acid; vs control. The format is in vivo, mouse (ddY-strain).
Excerpt: as §1, §2
ddY-strain male mice (27-30 g), 6 per group, were used. One hour after administration of dolichol to the mice, 0.6% acetic acid was intraperitoneally administered to the mice in a dose of 0.1 ml/10 g. […] The inhibitory action on acetic acid writhing was thus examined.
For orientation: An intraperitoneal irritant provokes the stretching counted in writhing tests.

For the next series, the system named is corneal reflex. The series is described as follows: Local anesthetic action in guinea pigs (corneal reflex). The settings on record: up to 0.1%, dropped into the eyes. The format is in vivo, guinea pig (Hartley-strain).
Excerpt: as §1, §2
Hartley-strain male guinea pigs (370-440 g), 3 per group, were used. Dolichol was dropped in a concentration of 0.001%, 0.01% and 0.1%, respectively, into the eyes of the guinea pigs. […]

In another series the test system is mice. The series is described as follows: Neuropharmacological test using mice (Irwin's method). In kind it is in vivo, mouse (ddY-strain). The following applies: 150, 300 and 600 mg/kg i.p.
Excerpt: as §1, §2
ddY-strain male mice, 6 per group, were used, and their changes in behavior, nervous symptoms, autonomic nervous symptoms and toxic symptoms were observed, analyzed and recorded in accordance with the Irwin's method of observation. […]

Series [2] deals with late erythrocytic progenitor cells (CFU-e). The series is described as follows: Differentiation and proliferation of late erythrocytic progenitor cells (CFU-e), cluster colony formation. The following applies: 20 μg/ml, Runs 2 to 4. In kind it is cell-based, mouse (BDF1-strain). The procedure:
The mouse bone marrow cells used in the following experiments were all prepared as follows:
BDF1 -strain mice (female, 8 to 10 weeks old) were killed by cervical dislocation, and the femurs were collected under sterile conditions. The bone marrow cells were flushed out from the femurs with α-medium, and formed into a single cell suspension by repeated aspiration with a 26-gauge needle fitted to a 1 ml-syringe. The cells were washed two times with α-medium by centrifugation at 200×G for 5 minutes and used in the following experiments.
In accordance with the method of Murphy et al. mentioned above, mouse bone marrow cells were plated at 2.5×10^4 nuclear cells into 0.5 ml of α-medium containing 0.25 unit of erythropoietin, 30% fetal bovine serum, 1% bovine serum albumin, 0.1 mM 2-mercaptoethanol and 0.4% methyl cellulose with 10 μg of dolichol dissolved in 1 μl of ethanol, 10 μg of dolichyl phosphate dispersed in 0.5 μl of dimethyl sulfoxide, 1 μl of ethanol or 0.5 μl of dimethyl sulfoxide in a 16 mm.phi. tissue culture plate, and incubated at 37° C. in a humidified atmosphere of 5% carbon dioxide in air for 2 days. The number of cluster colonies consisting of 8 to 64 erythroblasts derived from CFU-e in the tissue culture plate was scored with an inverted microscope. The experiment was carried out by 6 replica assays for each group, and the average number of the colonies formed was determined. The results are shown in Table 3, in the rows of Runs 2 to 4.

Entries after “also recorded” stand apart in the source; their conditions may differ.

Take dolichol: the “Antagonistic action against reserpine-induced blepharoptosis” value in series [1] is recorded as “no antagonistic action”. For the same substance, the Prothrombin time result in the series with blood coagulation system is “tended to become longer; also recorded: no significant difference was noted”. In the series with extracted ileum, the “Direct action on extracted ileum” value was “no direct action”. Also, the “Antagonistic action against isoproterenol” value with extracted trachea (extracted trachea) is reported as “nor antagonistic action”. For the same substance, in the series on extracted trachea, the “Direct action on extracted trachea” value is “no direct action”. In addition, in the series on acetic acid writhing, the “Inhibitory action on acetic acid writhing” value was “no significant difference was noted”. For the same substance, in the series with corneal reflex, the “Disappearance of corneal reflex” value is “no disappearance of corneal reflex” and the Local anesthetic action result is given as “no local anesthetic action was observed”. For the same substance, the “Effect on behaviors, nervous symptoms, autonomic nervous symptoms and toxic symptoms” value in the series with mice was “no effect was observed”. Also, in series [2] (2 days, erythropoietin 0.25 unit, mean ± S.E., 6 replicas, solvent controls 124.2 ± 2.7, 246.0 ± 5.0, 124.7 ± 2.9), the “Number of colonies formed in the dolichols-added group (CFU-e)” value is recorded as 151.0 ± 2.2. Besides, the “Percent increase (%) of colony formation (CFU-e)” value in series [2] (vs solvent-added control group) is listed as “+21.6%”.
